ChEMBL document CHEMBL2380207, “Recent advances in natural products from plants for treatment of liver diseases” (Eur J Med Chem, 2013)

Assay: Inhibition of Hepatitis C virus protease
Set-up: species or system Hepacivirus hominis

IC50: 35 µM
Structure (SMILES): CC1Cc2cccc(O)c2C(=O)O1 (stereo unspecified) [MELLEIN]
